In article PMC8518382, “Identification of a Bromodomain‐like Region in 15‐Lipoxygenase‐1 Explains Its Nuclear Localization” (Angewandte Chemie (International Ed. in English), 2021):
“And” between values parts separate entries of the source, which are not always exact repeats. Equal entries are not always repeated.

Tests used:
[1] = biological target: T1, 15-LOX-2 (Homo sapiens, UniProt O15296); assay: ABP-based ELISA assay with A549 cell lysate, 15-LOX-2; assay type: biochemical
T1 construct: endogenous in cells; host or cells: A549 cell lysate
T1 sequence (O15296 1-676): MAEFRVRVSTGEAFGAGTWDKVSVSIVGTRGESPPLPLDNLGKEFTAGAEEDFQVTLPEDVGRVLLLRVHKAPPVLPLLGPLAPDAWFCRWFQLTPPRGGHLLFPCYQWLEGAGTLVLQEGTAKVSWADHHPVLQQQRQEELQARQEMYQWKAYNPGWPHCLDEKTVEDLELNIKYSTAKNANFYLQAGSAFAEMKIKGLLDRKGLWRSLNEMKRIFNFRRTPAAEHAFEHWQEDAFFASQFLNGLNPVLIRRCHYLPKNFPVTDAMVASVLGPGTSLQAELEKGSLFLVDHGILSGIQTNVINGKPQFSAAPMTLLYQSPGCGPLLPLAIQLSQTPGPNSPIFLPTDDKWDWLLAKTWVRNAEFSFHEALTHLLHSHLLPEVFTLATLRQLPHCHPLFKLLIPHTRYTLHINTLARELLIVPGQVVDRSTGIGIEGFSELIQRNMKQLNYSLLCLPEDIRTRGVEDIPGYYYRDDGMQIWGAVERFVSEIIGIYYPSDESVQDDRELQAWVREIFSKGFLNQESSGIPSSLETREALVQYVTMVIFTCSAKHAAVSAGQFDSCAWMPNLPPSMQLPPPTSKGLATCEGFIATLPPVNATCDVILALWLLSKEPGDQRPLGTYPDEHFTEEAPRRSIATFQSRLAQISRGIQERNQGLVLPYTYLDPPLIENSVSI
Description: (§1) A549 cell lysate was treated with a serial dilution of the respective inhibitor. Subsequently, samples were labeled by treatment with 1 μM of Labelox B for 1 min. […] Data are mean±s.d., n≥3 independent experiments. […]
(§2) 1.6. Immunoblotting Analysis […]
(§3) 1.7. ABPP-based LOX inhibitor specificity validation
(§4) A549 cells were lysed by RIPA buffer supplemented with 1x PIC. After sonication and centrifugation, the supernatant was collected, and the protein concentration was determined by a Pierce BCA Protein Assay Kit (Thermo Fisher Scientific, USA). The lysates were then diluted with PBS to 300 ng/µl and stored in -20°C. To label endogenous LOXs with Labelox B under the competition condition, 180 µl diluted lysates were incubated with 200 µl different LOX inhibitor solution (in PBS) with desired concentrations for 18 min to inhibit LOXs activity. Later, 20 µl of a 20 µM Labelox B (in PBS) was added and incubated shortly for 2 min, followed by adding 50 µl of a 0.5 M EDTA to stop the labeling reaction. The reaction mixture was 450 µl in total. Inhibitors and Labelox B were absent in positive and […]
(1 picture or pasted object on this page, not shown here) […]
(§5) negative control, respectively. To detect the competition labeling of Labelox B among different LOXs, a high-binding 96-well plate (Greiner, #M4561) was coated with 5-LOX (#ab169755, Abcam), 12-LOX […]
(1:500 dilution in PBS) for overnight at 4°C. After washing triply with 0.05%PBST, the plate was blocked with 2% (w/v) BSA in PBST. Subsequently, 100 µl of each reaction mixture was added to the LOX-antibody-coated wells. There are four LOX antibodies used for coating. Therefore, in total, 400 µl mixture is needed for each reaction. After one hour of incubation, LOXs were pulled down by antibodies accordingly. Next, 100 µl of HRP-conjugated streptavidin (1:2000 dilution in PBS, Thermo Fisher Scientific, USA) was added to each well to detect the D04 labeled LOXs among precipitated LOXs. […] The absorbance at […]

[2] = biological target: T2, 15-LOX-1 (Homo sapiens, UniProt P16050); assay: ABP-based ELISA assay with A549 cell lysate, 15-LOX-1; assay type: biochemical; design: the endogenous LOXs were captured on an anti‐LOX antibody precoated 96‐well plate; endogenous in cells; host or cells: A549 cell lysate
T2 sequence (P16050 1-662): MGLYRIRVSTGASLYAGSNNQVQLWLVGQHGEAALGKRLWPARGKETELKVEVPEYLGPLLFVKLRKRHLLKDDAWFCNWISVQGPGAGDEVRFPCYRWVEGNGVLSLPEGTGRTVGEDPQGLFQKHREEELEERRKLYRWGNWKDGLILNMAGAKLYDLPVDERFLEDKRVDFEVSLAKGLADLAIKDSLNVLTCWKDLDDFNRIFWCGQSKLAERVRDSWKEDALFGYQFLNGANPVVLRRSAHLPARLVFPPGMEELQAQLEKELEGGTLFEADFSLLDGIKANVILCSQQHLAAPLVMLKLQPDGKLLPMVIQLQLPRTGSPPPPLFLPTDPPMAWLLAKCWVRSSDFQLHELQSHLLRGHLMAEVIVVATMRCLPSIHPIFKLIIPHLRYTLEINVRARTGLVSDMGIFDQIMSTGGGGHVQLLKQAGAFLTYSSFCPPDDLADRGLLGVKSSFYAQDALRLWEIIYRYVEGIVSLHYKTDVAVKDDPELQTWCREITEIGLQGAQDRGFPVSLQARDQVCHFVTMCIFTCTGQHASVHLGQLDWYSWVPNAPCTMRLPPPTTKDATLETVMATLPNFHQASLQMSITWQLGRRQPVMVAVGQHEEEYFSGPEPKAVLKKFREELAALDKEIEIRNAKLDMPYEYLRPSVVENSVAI
Description: as §1, §2, §3, §4, §5
(1:500 dilution in PBS) for overnight at 4°C. After washing triply with 0.05%PBST, the plate was blocked with 2% (w/v) BSA in PBST. Subsequently, 100 µl of each reaction mixture was added to the LOX-antibody-coated wells. There are four LOX antibodies used for coating. Therefore, in total, 400 µl mixture is needed for each reaction. After one hour of incubation, LOXs were pulled down by antibodies accordingly. Next, 100 µl of HRP-conjugated streptavidin (1:2000 dilution in PBS, Thermo Fisher Scientific, USA) was added to each well to detect the D04 labeled LOXs among precipitated LOXs. After washing with PBST, 100 µl of mixed HRP substrate reagent (R&D Systems, Minneapolis, USA) was added, and the colorizing reaction was stopped by adding 100 µl of 1M sulfuric acid. The absorbance at […]

SMILES | HillSlope Value [1] | HillSlope Value [2] | IC50 ([1]; 1 μM Labelox B) | IC50 ([2]; 1 μM Labelox B) [µM]
O=c1cc(-c2ccccc2)oc2cc(O)c(O)c(O)c12 [Baicalein] | -0.34 | -0.47 | – | –
c1ccc2c(c1)SCc1c-2[nH]c2ccccc12 [PD146176] | -0.88 | -0.93 | > 100 µM and 123 µM | 17.3
